Assay results published in patent publication US6310093A (priority 1998, dated 2001).
Where “and” joins values, the source holds several entries; their conditions need not be identical. Equal values may be shown once. Entries after “also recorded” stand apart in the source; their conditions may differ. Read-outs that look alike come from different tables or passages of the source. Non-standard residues stand in square brackets, D forms with d. Residues, ends and D or L forms follow the SMILES beside them. pGlu = O=C1CC[C@@H](C(=O)O)N1

Legend:
[1] = biological target: T1, glutaminase (brain membranes) (Rattus norvegicus, UniProt P13264); assay: biochemical; parameters: Glutaminase Activity: unit not given here; conditions: for Glutaminase Activity: brain membranes
T1 construct: Membranes are prepared by homogenization of brain tissue in 330 mM sucrose; from tissue; host or cells: rat brain, crude membranes (17000 G pellet)
T1 sequence (P13264 73-674 limits assumed): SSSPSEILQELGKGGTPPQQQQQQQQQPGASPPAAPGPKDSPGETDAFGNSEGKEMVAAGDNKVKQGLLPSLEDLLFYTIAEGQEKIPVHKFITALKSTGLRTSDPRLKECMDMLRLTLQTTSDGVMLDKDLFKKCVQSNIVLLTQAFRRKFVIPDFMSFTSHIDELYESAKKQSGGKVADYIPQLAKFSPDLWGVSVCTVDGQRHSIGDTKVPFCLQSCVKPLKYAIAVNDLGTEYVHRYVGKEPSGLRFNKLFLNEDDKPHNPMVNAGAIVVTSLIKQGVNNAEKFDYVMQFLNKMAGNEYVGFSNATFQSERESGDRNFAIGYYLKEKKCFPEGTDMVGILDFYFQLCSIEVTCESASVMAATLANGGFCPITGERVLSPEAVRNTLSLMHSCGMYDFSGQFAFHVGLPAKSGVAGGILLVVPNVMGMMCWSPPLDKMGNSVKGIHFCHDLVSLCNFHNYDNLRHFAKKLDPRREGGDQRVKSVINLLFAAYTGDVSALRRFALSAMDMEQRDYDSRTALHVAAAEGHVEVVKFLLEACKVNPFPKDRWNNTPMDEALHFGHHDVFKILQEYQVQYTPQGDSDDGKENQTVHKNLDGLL

[2] = tested on: pure neuronal cultures (cortical neurons) exposed to glutamine
[3] = read-out: glutaminase activity, phosphate-containing compounds

| SMILES | activity at 3300 µM ([1]; read-out: Glutaminase Activity) | activity at 9000 µM ([1]; read-out: Glutaminase Activity) | other results |
| --- | --- | --- | --- |
| CC(CC(N)C(=O)O)C(=O)O (racemic) [(±)-threo-4-methylglutamate] | 170% | 100% |  |
| CC(=O)NC(CCC(=O)O)C(=O)O (racemic) [N-acetyl-DL-glutamate] | 92 ± 10% | 75 ± 10% |  |
| CNC(CCC(=O)O)C(=O)O (racemic) [N-methyl-DL-glutamate] | 102% | 124% |  |
| CC(N)(CCC(=O)O)C(=O)O (racemic) [α-methyl-DL-glutamate] | 76% |  |  |
| C=C(CC(N)C(=O)O)C(=O)O (racemic) [γ-methylene-DL-glutamate] | 105 ± 10% |  |  |
| C[C@@H](CC(=O)O)[C@H](N)C(=O)O (relative stereo) [(±)-erythro-3-methylglutamate] | 34% | 18% | glutaminase inhibition (in words) [1]: moderate inhibition |
| C[C@H](CC(=O)O)[C@H](N)C(=O)O (relative stereo) [(±)-threo-3-methylglutamate] | 91% | 7% |  |
| CCCCCCCC([N+](=O)[O-])[N+](=O)[O-] [1,1-dinitrooctane] |  |  | neuroprotection (in words) [2]: neuroprotective in cultures of pure (intact) neurons; lowering of LDH level ([2]; pure neuronal cultures): 30-40%; lowering of glutamate level ([2]; pure neuronal cultures): 30-40%; dependence of glutaminase inhibition on phosphate level and concentration (in words) [1]: inhibition was reduced in the presence of high phosphate levels; the effect was particularly evident; also recorded: A biphasic effect; Glutaminase Activity ([1]; 30 µM): 96 ± 3; Glutaminase Activity ([1]; 100 µM): 96 ± 4; Glutaminase Activity ([1]; 300 µM): 51 ± 4 and 88 ± 17; Glutaminase Activity ([1]; 3000 µM): 64 ± 43; activity at 30 µM ([1]; read-out: Glutaminase Activity): 89 ± 6%; activity at 100 µM ([1]; read-out: Glutaminase Activity): 77 ± 11%; activity at 3000 µM ([1]; read-out: Glutaminase Activity): 79 ± 27% |
| NC(CC(N)C(=O)O)C(=O)O (centres unmarked) [2,4-diaminopentanedioic acid] | 82 ± 7% | 103 ± 25% |  |
| CCOP(=O)(OCC)c1ccc(P(=O)(OCC)OCC)s1 [2,5-bis(diethoxyphosphoryl) thiophene] |  |  | activity at 3000 µM [1, 3]: 75 to 90%; activity at 9000 µM [1, 3]: 70 to 85% |
| O=C(O)C(CC=C1c2ccccc2C=Cc2ccccc21)C(=O)O [2-(2-dibenzo(a,d)cyclohepten-5-ylidene)-ethyl malonic acid] |  |  | dependence of glutaminase inhibition on phosphate level and concentration (in words) [1]: inhibition was reduced in the presence of high phosphate levels; the effect was particularly evident; Glutaminase Activity ([1]; 300 µM): 83 ± 7; Glutaminase Activity ([1]; 1000 µM): 61 ± 4; activity at 100 µM ([1]; read-out: Glutaminase Activity): 86 ± 10%; activity at 300 µM ([1]; read-out: Glutaminase Activity): 75 ± 5%; activity at 1000 µM ([1]; read-out: Glutaminase Activity): 44 ± 2% |
| C=CCCCCCCCCCC(C(=O)O)C(=O)O [2-undec-10-enyl malonate] |  |  | Glutaminase Activity ([1]; 100 µM): 89 ± 6; Glutaminase Activity ([1]; 300 µM): 87 ± 2; activity at 100 µM ([1]; read-out: Glutaminase Activity): 96 ± 7%; activity at 300 µM ([1]; read-out: Glutaminase Activity): 67 ± 2% |
| N[C@@H](CC(F)C(=O)O)C(=O)O (some centres unmarked) [4-fluoroglutamic acid] | 4.2 ± 1.3% |  | IC50 [1]: 500 µM; activity at 330 µM ([1]; read-out: Glutaminase Activity): 67 ± 7%; activity at 1000 µM ([1]; read-out: Glutaminase Activity): 30 ± 9% |
| CC[C@](N)(CCC(=O)O)C(=O)O [(2S)-α-ethyl glutamic acid] | 95% |  |  |
| C[C@H](N)C(=O)N[C@@H](CCC(=O)O)C(=O)O [Ala--Glu] (H-Ala-Glu-OH) | 117% | 115% |  |
| N=C(N)NCCC[C@H](N)C(=O)N[C@@H](CCC(=O)O)C(=O)O [Arg--Glu] (H-Arg-Glu-OH) | 123% | 118% |  |
| N[C@@H](CC(=O)O)C(=O)N[C@@H](CCC(=O)O)C(=O)O [Asp--Glu] (H-Asp-Glu-OH) | 77% | 32% | glutaminase inhibition (in words) [1]: moderate inhibition |
| CC(C)(C)OC(=O)N[C@@H](CCC(=O)O)C(=O)O [BOC--Glu--OH] | 101% | 100% |  |
| CC(C)(C)OC(=O)NCC(=O)NC(CC(F)C(=O)O)C(=O)O (centres unmarked) [BOC-glycyl-4-fluoroglutamate] | 52% | 15% |  |
| N[C@@H](CCC(=O)O)C(=O)N[C@@H](CCC(=O)O)C(=O)O [Glu--Glu] (H-Glu-Glu-OH) | 130% | 141% |  |
| N[C@@H](CCC(=O)O)C(=O)NCC(=O)O [Glu--Gly] (H-Glu-Gly-OH) | 94% | 95% |  |
| NCCCC[C@H](NC(=O)[C@@H](N)CCC(=O)O)C(=O)O [Glu--Lys] (H-Glu-Lys-OH) | 96% | 93% |  |
| C[C@@H](O)[C@H](NC(=O)[C@@H](N)CCC(=O)O)C(=O)O [Glu--Thr] (H-Glu-Thr-OH) | 124% | 123% |  |

| SMILES | activity at 3300 µM ([1]; read-out: Glutaminase Activity) | activity at 9000 µM ([1]; read-out: Glutaminase Activity) | other results |
| --- | --- | --- | --- |
| CC(C)[C@H](NC(=O)[C@@H](N)CCC(=O)O)C(=O)O [Glu--Val] (H-Glu-Val-OH) | 122% | 116% |  |
| NCC(=O)N[C@@H](CCC(=O)O)C(=O)O [Gly--Glu] (H-Gly-Glu-OH) | 94% | 102% |  |
| NCC(=O)NCC(=O)N[C@@H](CCC(=O)O)C(=O)O [Gly--Gly--Glu] (H-Gly-Gly-Glu-OH) | 101% | 87% |  |
| NCC(=O)N[C@H](CCC(=O)O)C(=O)O [Gly-D-Glu] (H-Gly-[dE]-OH) | 109% | 90% |  |
| CCOC(=O)CC[C@H](N)C(=O)O [L-glutamate-5-ethyl ester] | 98% | 92% |  |
| COC(=O)CC[C@H](N)C(=O)O [L-glutamate-5-methyl ester] | 105 ± 7% | 113% |  |
| NC(=O)[C@@H](N)CCC(=O)O [L-glutamide] | 99% | 96% |  |
| CSCC[C@H](N)C(=O)N[C@@H](CCC(=O)O)C(=O)O [Met--Glu] (H-Met-Glu-OH) | 111% | 98% |  |
| CC(=O)N[C@@H](CC(=O)O)C(=O)N[C@@H](CCC(=O)O)C(=O)O [N-acetyl Asp--Glu] (Ac-Asp-Glu-OH) | 83% |  | glutaminase inhibition (in words) [1]: moderate inhibition |
| N=CN[C@@H](CCC(=O)O)C(=O)O [N-formamino-Glu] | 89% | 127% |  |
| N[C@@H](CO)C(=O)N[C@@H](CCC(=O)O)C(=O)O [Ser--Glu] (H-Ser-Glu-OH) | 104% | 88% |  |
| N[C@@H](Cc1c[nH]c2ccccc12)C(=O)N[C@@H](CCC(=O)O)C(=O)O [Trp--Glu] (H-Trp-Glu-OH) | 99% | 86% |  |
| N[C@@H](Cc1ccc(O)cc1)C(=O)N[C@@H](CCC(=O)O)C(=O)O [Tyr--Glu] (H-Tyr-Glu-OH) | 110% | 118% |  |
| CC(C)[C@H](N)C(=O)N[C@@H](CCC(=O)O)C(=O)O [Val--Glu] (H-Val-Glu-OH) | 114% | 99% |  |
| O=C(O)CC[C@H](NC(=O)OCc1ccccc1)C(=O)O [carbobenzoxy-Glu--OH] | 65% | 56% | glutaminase inhibition (in words) [1]: moderate inhibition |
| O=C(O)CCCC(=O)O [glutaric acid] | 89% | 75% |  |
| NCC(=O)NC(CC(F)C(=O)O)C(=O)O (centres unmarked) [glycyl-4-fluoroglutamate, Glycyl-4-fluoroglutamate] | 55% | 30% | activity at 330 µM ([1]; read-out: Glutaminase Activity): 94%; activity at 900 µM ([1]; read-out: Glutaminase Activity): 80% |
| Cc1ncc(COP(=O)(O)O)c(C=O)c1O [pyridoxal 5-phosphate] |  |  | activity at 3000 µM [1, 3]: 75 to 90%; activity at 9000 µM [1, 3]: 70 to 85% |
| C[C@H](NC(=O)[C@@H]1CCC(=O)N1)C(=O)N[C@@H](CCC(=O)O)C(=O)O [pyro-Glu--Ala--Glu] ([pGlu]-Ala-Glu-OH) | 95% | 76% |  |
| CC(C)OP(=O)(CCP(=O)(OC(C)C)OC(C)C)OC(C)C [tetraisopropyl ethylene diphosphonate] |  |  | activity at 3000 µM [1, 3]: 75 to 90%; activity at 9000 µM [1, 3]: 70 to 85% |
| NC(CC(=O)O)CC(=O)O [β-glutamic acid] | 84% |  | Glutaminase Activity ([1]; 9000 µM): 73 and 83 and 94 |
| N[C@@H](CCC(=O)NCC(=O)O)C(=O)O [γ-Glu--Gly] | 90 ± 13% |  |  |
| NC(CC(C(=O)O)C(=O)O)C(=O)O (centres unmarked) [γ-carboxy glutamate] | 100% | 104% |  |
